Measured values as given in US5656452A, “NF-ATp, ' a T lymphocyte DNA-binding protein” (President and Fellows of Harvard College, priority 1993, dated 1997).

Assays:
[1] = system: NF-ATp dephosphorylation in Ar-5 T cell extracts; test: Dephosphorylation of NF-ATp (apparent molecular weight by SDS-PAGE, renaturation, EMSA) in extracts of drug-treated Ar-5 T cells; type: cell-based, murine; details: prior treatment of T cells for 10 minutes with 1 μM CsA or 100 nM FK506 before lysis
Procedure: To prepare hypotonic extracts, cells were harvested by centrifugation, washed with phosphate buffered saline and resuspended to 10^8 cells/ml in buffer containing 7.5 mM Tris (pH 7.6), 2 mM PMSF, 1 mM MgCl2, 0.5 mM DTT, 0.25 mM leupeptin, 0.1 mM EDTA and 1 mg/ml aprotinin. The cells were lysed by quick-freezing in dry ice and rapid thawing in a room-temperaturewater bath, followed by centrifugation at 12,000 x g for 10 minutes. Where indicated, cells were treated before harvesting with 1 μM CsA (Sandoz Corp.) or 100 nM FK506 (Fujisawa Pharmaceutical) for 10 minutes at 37° C.
Hypotonic or nuclear extracts were boiled in SDS-PAGE sample buffer (65 mM Tris, pH 6.8, 2% SDS, 2% 2-mercaptoethanol, 10% glycerol, 0.01 mg/ml bromphenol blue) and fractionated on 3 mm thick SDS-polyacrylamide gels by standard methods (Laemmli, U. K. (1970) Nature 227, 680-685). Molecular weight standards (BioRad Laboratories) were also run on the same gel. After electrophoresis, the standards were cut off and separately stained. For recovery of proteins from the gels, slices (1 cm×0.5 cm) from wet, unfixed gels were crushed and eluted overnight in 50 mM Tris, pH 7.9, 1 mM DTT, 0.2 mM EDTA, 0.1 mM PMSF, 0.1 mg/ml BSA, 2.5% glycerol and 0.1% SDS (Baeuerle, P., and Baltimore, D. (1988) Cell 53, 211-217). […]

[2] = system: Ar-5 T cells (NF-AT induction, IL-2 gene expression); test: Induction of NF-AT and IL-2 gene expression in activated Ar-5 T cells; type: cell-based, murine; details: Ar-5 cells activated through T cell antigen receptor/CD3
Procedure: For preparation of nuclear extracts from activated T cells, cells were incubated for two hours with cross-linked anti-CD3ε monoclonal antibody (145-2C11, Kubo, R. T., Born, W., Kappler, J. W., Marrack, P., and Pigeon, M. (1989) J. Immunol. 142, 2736-2742) in the presence or absence of 1 μM CsA. Activation conditions and preparation of nuclear extracts was exactly as previously described (McCaffrey, P. G., Jain, J., Jamieson, C., Sen, R., and Rao, A. (1992) J. Biol. Chem. 267, 1864-1871). Protein determinations were done by the method of Bradford (Bradford, M. (1976) Anal. Biochem. 72,248-254), using bovine serum albumin as a standard.
To characterize the preexisting, DNA-binding component of NF-AT, we have used the murine IL-2 dependent T cell clone Ar-5. Activation of Ar-5 cells with monoclonal antibodies to the T cell antigen receptor or its associated CD3 complex causes the rapid appearance in the nucleus of several inducible transcription factor including NF-AT, which is followed by expression of the IL-2 gene and cell proliferation (Jamieson, C., McCaffrey, P. G., Rao, A., and Sen, R. (1991) J. Immunol. 147,416-420). […] We have previously established that unactivated Ar-5 cells contain a protein or proteins, extracted under hypotonic lysis conditions, that can bind in the EMSA to an oligonucleotide comprising the distal NF-AT sequence from the murine IL-2 promoter. […]

C=CC[C@@H]1/C=C(\C)C[C@H](C)C[C@H](OC)[C@H]2O[C@@](O)(C(=O)C(=O)N3CCCC[C@H]3C(=O)O[C@H](/C(C)=C/[C@@H]3CC[C@@H](O)[C@H](OC)C3)[C@H](C)[C@@H](O)CC1=O)[C@H](C)C[C@@H]2OC [FK506]
Dephosphorylation of NF-ATp in cell extracts [1]: inhibited | Induction of NF-AT and subsequent IL-2 gene expression [2]: completely blocked
